Measurements reported in PMC5444710, “Enhancement of radiosensitivity by the novel anticancer quinolone derivative vosaroxin in preclinical glioblastoma models” (Oncotarget, 2017).
Where a SMILES comes first, the peptide text is derived from it. The star is where a group is joined. Cbz = O=C(OCc1ccccc1)*; CH2F = FC*

What was measured:
[1] = tested on: U87MG, U251, and T98G cells; experiment: Autophagy: acidic vesicular organelle (AVO) staining; format: cell-based, human; conditions: RT 4 Gy, 24 hours
Excerpt: As a marker of autophagy we evaluated the presence of AVOs after staining of cell cultures with LysoTracker® Red DND-99 kit (Life Technologies Italia, Monza, Italy) according to the manufacturer’s instructions. The intensity of the red fluorescence is proportional to the degree of acidity. The percentage of autophagic cells was quantified with the Tali® Image-Based Cytometer (Life Technologies) measuring fluorescence emission at 590 nm with fluorescence excitation at 577 nm. The results were expressed as the percentage of cell AVOs stained in controls and in treated cultures.

U251 xenografts = experiment: Subcutaneous xenograft model: tumor weight and time to progression; format: in vivo, female CD1-nu/nu mice; conditions: U251 xenografts; day 35; VSR 10 mg/kg q 5 d for 5 wk IV; TMZ 16 mg/kg 5 consecutive days; RT single 4 Gy
Protocol: (§1) Female CD1-nu/nu mice, at 6 weeks of age, were purchased from Charles River (Milan, Italy) under the guidelines established by our institution (University of L’Aquila, Medical School and Science and Technology School Board Regulations, complying with Italian government regulation n.116, January 27, 1992, for the use of laboratory animals). All mice received subcutaneous flank injections (2 each) of 1 × 10^6 U251, U87MG, and T98G cells representing models for MGMT-negative and MGMT-positive cells. Tumor growth was assessed biweekly by measuring tumor diameters with a Vernier caliper (length × width). Tumor weight was calculated according to the formula tumor weight (mg) = tumor volume (mm^3) = d2 × D/2, where d and D are the shortest and longest diameters, respectively. The effects of the treatments were assessed as previously described. At about 10 days after the tumor injection, 30 mice with tumor volumes of 0.5–0.8 cm^3 were randomly divided into 6 groups (5 mice per group with 2 tumors each): (1) control (vehicle); (2) vosaroxin (10 mg/kg every 5 days for 5 weeks intravenous [IV] injection into tail vein; (3) radiotherapy (RT; 4 Gy delivered in a single fraction); (4) vosaroxin in combination with RT; (5) temozolomide (16 mg/kg 5 consecutive days) and (6) temozolomide in combination with RT. Anesthetized tumor-bearing mice received focal irradiation. Irradiation was delivered using an x-ray linear accelerator at a dose rate of 200 cGy/min at room temperature. All mice were shielded with a specially designed lead apparatus to allow irradiation to the right hind limb. At the end of the study (35 days after the start of treatments), animals were sacrificed by carbon dioxide inhalation and tumors were then removed surgically. Half of the tumor was directly frozen in liquid nitrogen for protein analysis and the other half was fixed in paraformaldehyde overnight for immunohistochemical analyses.
(§2) The following parameters were used to quantify the antitumor effects of different treatments as previously described: tumor volume, measured throughout the experiment; tumor weight, measured at the end of the experiment; tumor progression, defined as an increase of greater than 50% of tumor volume with respect to baseline; and time to progression (TTP), defined as the time until tumor progression was observed from baseline. Tumor size was measured with calipers and the TTP of a single tumor was calculated. TTP data were used to generate Kaplan-Meier curves for progression. This method of analysis was described previously, and may reduce both inter-subject variability resulting from differences in engraftment efficacy as well as intra-subject variability in response.
(§3) In vivo drug combination studies were evaluated using CalcuSyn. For CI calculations of dual administration, the values of % cell kill (%CK) for a fixed tumor volume were determined by the log CK (LCK). LCK was calculated as LCK = (T − C) / (3.32 × Td), where Td represented the mean control group doubling time required to reach a fixed tumor volume, expressed in days. T and C were the mean times in days required to reach the same fixed tumor volume in the treated group and the control group, respectively. CK was calculated as %CK = [1 − (1 − 10LCK)] × 100. Tumor growth delay (TGD) was calculated as %TGD = [(T − C) / C] × 100, where T and C were the same values as those reported by Bruzzese et al..

T98G xenografts = experiment: as above; format: in vivo, female CD1-nu/nu mice; conditions: T98G xenografts; day 35; VSR 10 mg/kg q 5 d for 5 wk IV; TMZ 16 mg/kg 5 consecutive days; RT single 4 Gy
Protocol: as §1, §2, §3

U87MG xenografts = experiment: as above; format: in vivo, female CD1-nu/nu mice; conditions: U87MG xenografts; day 35; VSR 10 mg/kg q 5 d for 5 wk IV; TMZ 16 mg/kg 5 consecutive days; RT single 4 Gy
Protocol: as §1, §2, §3

[2] = tested on: luciferase-transfected U251 cells; experiment: Orthotopic intra-brain model (DFS, OS)

Cn1cnc(N)c2ncnc1-2 [3-methyladenine]
RT-induced AVO staining ([1]; 5 μM): reduced

Cn1nnc2c(C(N)=O)ncn2c1=O [temozolomide]
final tumor weight reduction compared with vehicle controls (U251 xenografts): 54% | final tumor weight reduction compared with vehicle controls (T98G xenografts): 25% | final tumor weight reduction compared with vehicle controls (U87MG xenografts): 53% | Disease-free Survival HR (95% CI) ([2]; TMZ vs VSR): 2.0 (0.9–5.5) | Overall Survival HR (95% CI) ([2]; TMZ vs VSR): 3.0 (1.0–8.8) | mean time of recurrence (DFS) ± SE ([2]; orthotopic U251-luciferase, treated for 35 days starting 5 days after cell injection): 68.3 ± 5.4 days

COC(=O)C[C@H](NC(=O)[C@H](C)NC(=O)[C@@H](NC(=O)OCc1ccccc1)C(C)C)C(=O)CF [z-Val-Ala-Asp(Ome)-fluoromethyl ketone] (Cbz-Val-Ala-Asp(OMe)-CH2F)
RT-induced AVO staining ([1]; 10 μM): further increased
